Assay results: PubChem BioAssay AID330 (DTP/NCI, 2004)
Several values for one entry are separate records, joined by “and”; a condition that tells them apart may be missing. Identical values can stand only once. Toxic doses and inconclusive results are not listed.

Test system: P388 leukemia ip, CD2F1 mice, survival T/C
Test: NCI In Vivo Anticancer Drug Screen. Data for tumor model P388 Leukemia (intraperitoneal) in CD2F1 (CDF1) mice
Conditions: endpoint: median survival time, higher = longer survival
Outline: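 Mice carrying the transplanted tumor received test compound or vehicle. Survival was recorded in each group, and the value is the treated-group measurement divided by that of the vehicle-treated control group.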

[1] = dose: 50.0 mg/kg/injection, schedule: Q01DX005 (ip), vehicle: Klucel (hydroxypropylcellulose) (HPC)
[2] = dose: 100.0 mg/kg/injection, schedule: Q01DX005 (ip), vehicle: Klucel (hydroxypropylcellulose) (HPC)
[3] = dose: 200.0 mg/kg/injection, schedule: Q01DX005 (ip), vehicle: Klucel (hydroxypropylcellulose) (HPC)
[4] = dose: 100.0 mg/kg/injection, schedule: Q01DX001 (ip), vehicle: saline
[5] = dose: 200.0 mg/kg/injection, schedule: Q01DX001 (ip), vehicle: saline
[6] = dose: 400.0 mg/kg/injection, schedule: Q01DX001 (ip), vehicle: saline
[7] = dose: 50.0 mg/kg/injection, schedule: Q01DX009 (ip), vehicle: Klucel (hydroxypropylcellulose) (HPC)
[8] = dose: 100.0 mg/kg/injection, schedule: Q01DX009 (ip), vehicle: Klucel (hydroxypropylcellulose) (HPC)
[9] = dose: 12.5 mg/kg/injection, schedule: Q01DX005 (ip), vehicle: saline with Tween-80
[10] = dose: 50.0 mg/kg/injection, schedule: Q01DX005 (ip), vehicle: saline with Tween-80
[11] = dose: 100.0 mg/kg/injection, schedule: Q01DX005 (ip), vehicle: saline with Tween-80
[12] = dose: 200.0 mg/kg/injection, schedule: Q01DX005 (ip), vehicle: saline with Tween-80
[13] = dose: 60.0 mg/kg/injection, schedule: Q01DX005 (ip), vehicle: saline with Tween-80
[14] = dose: 120.0 mg/kg/injection, schedule: Q01DX005 (ip), vehicle: saline with Tween-80
[15] = dose: 240.0 mg/kg/injection, schedule: Q01DX005 (ip), vehicle: saline with Tween-80
[16] = dose: 25.0 mg/kg/injection, schedule: Q01DX005 (ip), vehicle: saline with Tween-80
[17] = dose: 200.0 mg/kg/injection, schedule: Q01DX009 (ip), vehicle: Klucel (hydroxypropylcellulose) (HPC)
[18] = dose: 50.0 mg/kg/injection, schedule: Q01DX009 (ip), vehicle: saline
[19] = dose: 100.0 mg/kg/injection, schedule: Q01DX009 (ip), vehicle: saline
[20] = dose: 200.0 mg/kg/injection, schedule: Q01DX009 (ip), vehicle: saline

## Cc1ccc(S(=O)(=O)N/N=C/c2ccc(O)c(O)c2)cc1
dose: 12.5 mg/kg/injection, schedule: Q01DX009 (ip), vehicle: other
  T/C: 112 % of control
dose: 25.0 mg/kg/injection, schedule: Q01DX009 (ip), vehicle: other
  T/C: 112 % of control
dose: 50.0 mg/kg/injection, schedule: Q01DX009 (ip), vehicle: other
  T/C: 112 % of control
dose: 100.0 mg/kg/injection, schedule: Q01DX009 (ip), vehicle: other
  T/C: 111 % of control and 120 % of control
dose: 200.0 mg/kg/injection, schedule: Q01DX009 (ip), vehicle: other
  T/C: 112 % of control and 121 % of control
dose: 400.0 mg/kg/injection, schedule: Q01DX009 (ip), vehicle: other
  T/C: 122 % of control

## O=C(O)/C=C/c1c(-c2ccccc2)sc2ccccc2c1=O
dose: 100.0 mg/kg/injection, schedule: Q04DX002 (ip), vehicle: saline with Tween-80
  T/C: 93 % of control
dose: 200.0 mg/kg/injection, schedule: Q04DX002 (ip), vehicle: saline with Tween-80
  T/C: 97 % of control
dose: 400.0 mg/kg/injection, schedule: Q04DX002 (ip), vehicle: saline with Tween-80
  T/C: 97 % of control

## OCC(O)c1c(-c2ccc(Cl)cc2)c(-c2ccccc2)c2n1CCC2 (stereo not given)
[1]
  T/C: 97 % of control
[2]
  T/C: 100 % of control
[3]
  T/C: 90 % of control

## CCOC(=O)C(Cc1ccccc1)P(=O)(OCC)OCC (stereo not given)
[4]
  T/C: 95 % of control
[5]
  T/C: 100 % of control
[6]
  T/C: 91 % of control

## O=[N+]([O-])C(Br)(CO)CO
dose: 3.12 mg/kg/injection, schedule: Q01DX009 (ip), vehicle: saline
  T/C: 100 % of control
dose: 6.25 mg/kg/injection, schedule: Q01DX009 (ip), vehicle: saline
  T/C: 103 % of control
dose: 12.5 mg/kg/injection, schedule: Q01DX009 (ip), vehicle: saline
  T/C: 114 % of control and 118 % of control

## Cc1ccc(/C=C/C(=N/NC(=O)c2ccccc2)C(C)CN(C)C)cc1 (stereo not given)
dose: 60.0 mg/kg/injection, schedule: Q01DX005 (ip), vehicle: saline
  T/C: 99 % of control
dose: 120.0 mg/kg/injection, schedule: Q01DX005 (ip), vehicle: saline
  T/C: 111 % of control

## Cc1ccc(S(=O)(=O)NC(=O)n2nc(C)cc2C)cc1
[1]
  T/C: 96 % of control
[2]
  T/C: 96 % of control
[3]
  T/C: 103 % of control

## Cn1cnc([N+](=O)[O-])c1N1CCN(c2ccccc2)CC1
dose: 100.0 mg/kg/injection, schedule: Q01DX001 (ip), vehicle: saline with Tween-80
  T/C: 97 % of control
dose: 200.0 mg/kg/injection, schedule: Q01DX001 (ip), vehicle: saline with Tween-80
  T/C: 93 % of control
dose: 400.0 mg/kg/injection, schedule: Q01DX001 (ip), vehicle: saline with Tween-80
  T/C: 94 % of control

## CCSc1ncc(Br)c(Sc2nc(N)nc3nc[nH]c23)n1
dose: 4.0 mg/kg/injection, schedule: Q04DX003 (ip), vehicle: saline with Tween-80
  T/C: 113 % of control
dose: 6.25 mg/kg/injection, schedule: Q01DX009 (ip), vehicle: saline with Tween-80
  T/C: 122 % of control
dose: 16.5 mg/kg/injection, schedule: Q04DX003 (ip), vehicle: saline with Tween-80
  T/C: 150 % of control
dose: 25.0 mg/kg/injection, schedule: Q01DX009 (ip), vehicle: saline with Tween-80
  T/C: 90 % of control
dose: 25.0 mg/kg/injection, schedule: Q04DX003 (ip), vehicle: saline with Tween-80
  T/C: 150 % of control and 159 % of control
dose: 100.0 mg/kg/injection, schedule: Q04DX003 (ip), vehicle: saline with Tween-80
  T/C: 122 % of control

## ClCc1nnc(-c2ccccc2)o1
[7]
  T/C: 100 % of control
[8]
  T/C: 95 % of control

## Cn1cccc1/C=N/N1CC(=O)N(c2cccc(C(F)(F)F)c2)CC1=O
dose: 6.25 mg/kg/injection, schedule: Q01DX005 (ip), vehicle: saline with Tween-80
  T/C: 98 % of control
[9]
  T/C: 100 % of control

## CC1=C2CCCCC2(O)OC1=O (stereo not given)
[4]
  T/C: 100 % of control
[5]
  T/C: 100 % of control
[6]
  T/C: 103 % of control

## c1ccc(Nc2nnc3nc(-c4ccccc4)c(-c4ccccc4)nn23)cc1
[10]
  T/C: 91 % of control
[11]
  T/C: 90 % of control
[12]
  T/C: 102 % of control

## N/C(=N\OC(=O)Nc1ccccc1)c1ccccc1
[13]
  T/C: 97 % of control
[14]
  T/C: 94 % of control
[15]
  T/C: 91 % of control

## COc1cccc(C2CC(C)(O)Oc3cc4c(cc32)OCO4)c1 (stereo not given)
dose: 60.0 mg/kg/injection, schedule: Q01DX005 (ip), vehicle: Klucel (hydroxypropylcellulose) (HPC)
  T/C: 93 % of control

## COc1ccc(C(C)c2cc(N=O)c(OC)cc2O)cc1 (stereo not given)
[9]
  T/C: 91 % of control
[16]
  T/C: 94 % of control
[10]
  T/C: 92 % of control and 96 % of control

## C/C=C/C=C/C(=O)Nc1ncc([N+](=O)[O-])s1
[7]
  T/C: 103 % of control
[8]
  T/C: 104 % of control
[17]
  T/C: 109 % of control

## C=C(C)c1nc(N)nc(-c2ccc(OC)cc2)n1
dose: 100.0 mg/kg/injection, schedule: Q04DX002 (ip), vehicle: Klucel (hydroxypropylcellulose) (HPC)
  T/C: 98 % of control
dose: 200.0 mg/kg/injection, schedule: Q04DX002 (ip), vehicle: Klucel (hydroxypropylcellulose) (HPC)
  T/C: 94 % of control
dose: 400.0 mg/kg/injection, schedule: Q04DX002 (ip), vehicle: Klucel (hydroxypropylcellulose) (HPC)
  T/C: 93 % of control

## CC(=O)NC1C(NC(=S)NCC(=O)c2ccc(C)cc2)OC(COC(C)=O)C(OC(C)=O)C1OC(C)=O (stereo not given)
[10]
  T/C: 94 % of control
[11]
  T/C: 94 % of control
[12]
  T/C: 91 % of control

## C1CC1c1nn[nH]n1
[7]
  T/C: 109 % of control
[8]
  T/C: 110 % of control
[17]
  T/C: 107 % of control

## CN1N=Nc2ccccc2C1(O)c1ccccc1 (stereo not given)
dose: 100.0 mg/kg/injection, schedule: Q01DX001 (ip), vehicle: Klucel (hydroxypropylcellulose) (HPC)
  T/C: 98 % of control
dose: 200.0 mg/kg/injection, schedule: Q01DX001 (ip), vehicle: Klucel (hydroxypropylcellulose) (HPC)
  T/C: 98 % of control
dose: 400.0 mg/kg/injection, schedule: Q01DX001 (ip), vehicle: Klucel (hydroxypropylcellulose) (HPC)
  T/C: 102 % of control

## Cc1ncc(C(O)c2ccc(Cl)cc2)n1Cc1ccccc1 (stereo not given)
[13]
  T/C: 96 % of control
[14]
  T/C: 104 % of control
[15]
  T/C: 99 % of control

## NC(C(=O)O)C(C(F)(F)F)C(F)(F)F (stereo not given)
[18]
  T/C: 101 % of control
[19]
  T/C: 102 % of control
[20]
  T/C: 114 % of control

## CN=C(NC)c1ccc(NC(=O)/C=C/C(=O)Nc2ccc(C(=NC)NC)cc2)cc1
[9]
  T/C: 101 % of control
[16]
  T/C: 99 % of control
[10]
  T/C: 98 % of control and 103 % of control

## CCC#CCC1(CC#CCC)CC1C (stereo not given)
[10]
  T/C: 100 % of control
[11]
  T/C: 99 % of control
[12]
  T/C: 107 % of control

## Cc1ccc(-n2c(C)nc3c(c(C)c(C)n3-c3ccccc3)c2=N)cc1
dose: 6.25 mg/kg/injection, schedule: Q01DX005 (ip), vehicle: Klucel (hydroxypropylcellulose) (HPC)
  T/C: 90 % of control
dose: 12.5 mg/kg/injection, schedule: Q01DX005 (ip), vehicle: Klucel (hydroxypropylcellulose) (HPC)
  T/C: 100 % of control
dose: 25.0 mg/kg/injection, schedule: Q01DX005 (ip), vehicle: Klucel (hydroxypropylcellulose) (HPC)
  T/C: 98 % of control

## O=[N+]([O-])c1c(N2CCN(CCO)CC2)ccc2nonc12
dose: 50.0 mg/kg/injection, schedule: Q01DX009 (ip), vehicle: suspension in saline
  T/C: 100 % of control
dose: 100.0 mg/kg/injection, schedule: Q01DX009 (ip), vehicle: suspension in saline
  T/C: 108 % of control

## Cc1ccc(NC2=C([n+]3ccc(C)cc3)C(=O)c3ccccc3C2=O)cc1
[9]
  T/C: 100 % of control
[16]
  T/C: 109 % of control
[10]
  T/C: 124 % of control

## COc1ccc(C2CC(=O)NC(NC#N)=N2)c(O)c1 (stereo not given)
[18]
  T/C: 104 % of control
[19]
  T/C: 102 % of control
[20]
  T/C: 100 % of control

## O=C1C(Cl)OC(c2ccccc2)=NN1c1ccccc1 (stereo not given)
dose: 50.0 mg/kg/injection, schedule: Q01DX005 (ip), vehicle: distilled water + alcohol
  T/C: 97 % of control
dose: 100.0 mg/kg/injection, schedule: Q01DX005 (ip), vehicle: distilled water + alcohol
  T/C: 107 % of control
dose: 200.0 mg/kg/injection, schedule: Q01DX005 (ip), vehicle: distilled water + alcohol
  T/C: 97 % of control
